Molecules are shown by their SMILES.

Data set [1] deals with central ear artery of a rabbit. The experiment in a line: Rabbit central ear artery (CEA) vasomotor response, lumen diameter and area by ultrasonic imaging. As to conditions: for CEA lumen area after norepinephrine and acetylcholine (acetylcholine-induced vasodilation response) / CEA lumen diameter after norepinephrine and acetylcholine (acetylcholine-induced vasodilation response): norepinephrine-preconstricted CEA; for CEA lumen area after norepinephrine and acetylcholine (acetylcholine-induced vasodilation response): vehicle group 0.6 mm^2; for CEA lumen diameter after norepinephrine and acetylcholine (acetylcholine-induced vasodilation response): vehicle group 0.8 mm. It is filed as in vivo. As for the experimental part: A group of six rabbits was anesthetized with a mixture of ketamine (50 mg/kg)/xylazine ([…]) administered intramuscularly and placed on a warming pad to maintain body temperature. Rabbit ear pinnae were shaved and depilitated using an over-the-counter depilatory agent. A segment of about 2 cm of the dorsal surface over the CEA on the right ear was coated with warmed ultrasonic gel. The baseline diameter and area of the rabbit's CEA were evaluated using a 23.5 MHz ultrasonic probe (model RMV 708). The images were recorded on a VISUALSONICS VEVO 600 system where the CEA lumen diameters and areas were subsequently measured. The vessel lumen diameter and area were expressed as mean and standard error of the mean (SEM). Norepinephrine and acetylcholine were infused in the contralateral left ear vein through a 27-gauge butterfly needle infusion set connected to an infusion pump. Images were obtained at about 5 minute intervals throughout the infusion periods.
To confirm that acetylcholine-induced vasodilation was NO-dependent, a second group of six rabbits was dosed with either the nitric oxide synthase inhibitor L-NAME (400 μg/mL) mixed in TANG® flavored drinking water (N=3) or TANG® flavored drinking water alone (N=3) for 5 consecutive days. L-NAME, N(G)-nitro-L-arginine-methyl ester, is an arginine derivative that blocks normal nitric oxide-dependent vasodilation. The rabbit CEA were then imaged on day 6. The rabbits were allowed to recover for about one week and then in crossover fashion each group of 3 was given the opposite treatment for 5 days and then imaged on day 6.
(§1) In another group, six adult New Zealand male rabbits (2.5-3.5 kg) were dosed orally (gavage with feeding tube) with the Imwitor/Cremophor/Water vehicle for 4 consecutive days during week 1. The vehicle (10% Imwitor, 20% Cremophor RH40 and 70% water, a light milky compound solution) was given in a total volume of 3 mL/kg per day. On day 4, three hours after oral dosing with vehicle or drug, the rabbits were anesthetized and measured for the vehicle's effect on CEA vessel lumen as described above. After week 1, the rabbits were allowed to recover for 3 days and were then orally dosed with a test compound such as torcetrapib or compound 2 at about 30 mg/kg for 4 consecutive days during week 2. On the 4th day of week 2, rabbit CEA diameter changes in response to test compounds were assessed with infusion of norepinephrine followed by acetylcholine as described above. Rabbits were again allowed to recover for an additional week to allow for drug elimination and were then subjected to daily vehicle dosing and CEA diameter changes in response to test compounds were assessed as described above.
(§2) A series of 5 images (approximately 5 minutes apart) of the CEA were taken and used for baseline lumen diameter (mm) and area (mm^2) measurements, respectively. The adrenergic agonist norepinephrine was slowly infused at about 28 μg per minute and maintained for the duration of the procedure. An infusion of acetylcholine was administered in escalating doses at about 10, 17, 30 and 56 μg/min, each for 15 minutes, in conjunction with the infusion of norepinephrine. The images were collected several times during each infusion period of 15 minutes. After the final acetylcholine and concurrent norepinephrine infusion period, all infusions were terminated and the vessel was allowed to return to its original size. About two mL of blood were sampled from the non-imaged contralateral CEA immediately after the last measurement. All samples were collected into tubes containing EDTA and centrifuged at about 10,000 rpm for 6 minutes. Plasma was kept in −80° C. until analyzed for the concentration of the tested compounds. In addition, blood was taken from a naïve rabbit for generation of a standard drug concentration curve. […]

Data set [2] in a line: Plasma concentration of test compound after oral dosing in rabbits. As to conditions: 4 hours after the last dose; for concentration at 4 h: male, New Zealand, rabbit, plasma, rabbits, oral about 30 mg/kg for 4 days. In kind it is in vivo, rabbit. On the procedure:
as §1
as §2, with “All samples were collected into tubes containing EDTA and centrifuged at about 10,000 rpm for 6 minutes.” left out, “compounds.” for “compounds. In addition, blood was taken from a naïve rabbit for generation of a standard drug concentration curve.”

In a further data set the test system is systolic blood pressure. As to conditions: patients receiving torcetrapib; cited from earlier work.
Where [3] appears, read: oral about 30 mg/kg for 4 days, compared to vehicle.

Consider `O[C@@H](CN1c2cccc(-c3cccc(OC(F)(F)F)c3)c2CC[C@@H]1c1cccc(OC(F)(F)C(F)F)c1)C(F)(F)F` [Compound 2, 1,1,1-Trifluoro-3-[2-{3-[(1,1,2,2-tetrafluoroethyl)oxy]phenyl}-5-{3-[(trifluoromethyl)oxy]phenyl}-3,4-dihydroquinolin-1(2H)-yl]propan-2-ol], for which the “effect on acetylcholine-induced vasodilation in norepinephrine-preconstricted CEA” value in data set [1] (setting [3]) is “does not affect”. In data set [1] (oral dose 30 mg/kg for 4 days), the “CEA lumen area after norepinephrine and acetylcholine (acetylcholine-induced vasodilation response)” value is reported as roughly 0.6 mm^2; the “CEA lumen diameter after norepinephrine and acetylcholine (acetylcholine-induced vasodilation response)” value is “about 0.8 mm”. Further, the “plasma concentration of compound 2 relative to torcetrapib” value in data set [2] (same dose and regimen) is recorded as “approximately 2.5 fold”. In data set [2], the concentration at 4 h amounted to 2580 ± 670 nM.
As to `COC(=O)[C@@H](N)CCCNC(=N)N[N+](=O)[O-]` [L-NAME, N(G)-nitro-L-arginine-methyl ester], the “effect of L-NAME on acetylcholine-induced vasodilation in norepinephrine-preconstricted CEA” value in data set [1] (L-NAME 400 μg/mL in drinking water for 5 days, imaged day 6) is “inhibits this acetylcholine-induced vasodilation”.
With `NC[C@H](O)c1ccc(O)c(O)c1` [norepinephrine], in data set [1] (norepinephrine infused at about 28 μg per minute, baseline about 0.6-0.7 mm^2), the “CEA lumen area during norepinephrine infusion” value is given as “about 0.2 mm^2”. Besides, the “CEA lumen diameter during norepinephrine infusion” value in data set [1] (norepinephrine infused at about 28 μg per minute, baseline about 0.8-0.9 mm) is recorded as “about 0.5 mm”.
As to `CCOC(=O)N1c2ccc(C(F)(F)F)cc2[C@@H](N(Cc2cc(C(F)(F)F)cc(C(F)(F)F)c2)C(=O)OC)C[C@H]1CC` [torcetrapib, ethyl (2R,4S)-4-[[3,5-bis(trifluoromethyl)benzyl](methoxycarbonyl)amino]-2-ethyl-6-(trifluoromethyl)-3,4-dihydroquinoline-1(2H)-carboxylate], the “systolic blood pressure in patients” value in the data set on systolic blood pressure was “higher systolic blood pressure”. Further, in data set [1] (setting [3]), the “effect on acetylcholine-induced vasodilation in norepinephrine-preconstricted CEA” value is “inhibits the acetylcholine-induced vasodilation”; the “effect on baseline CEA lumen diameter and area (basal vascular tone)” value is “caused a measurable baseline vasoconstriction”. Moreover, in data set [1] (oral dose 30 mg/kg for 4 days, prior to norepinephrine or acetylcholine, anesthetized rabbits, vehicle group 0.85 mm), the “baseline CEA lumen diameter” value was “about 0.55 mm”. In addition, the “baseline CEA lumen area” value in data set [1] (oral dose 30 mg/kg for 4 days, prior to norepinephrine or acetylcholine, vehicle group 0.65 mm^2) is recorded as “about 0.3 mm^2”. For the same compound, in data set [1] (oral dose 30 mg/kg for 4 days), the “CEA lumen area after norepinephrine and acetylcholine (acetylcholine-induced vasodilation response)” value worked out at 0.2 mm^2; the “CEA lumen diameter after norepinephrine and acetylcholine (acetylcholine-induced vasodilation response)” value was “about 0.45 mm”. Moreover, the concentration at 4 h in data set [2] is roughly 1010 nM.

Values taken from patent US8852556B2, “Animal model for evaluating vasomotor response in vivo” (Janssen Research & Development LLC, priority 2008, dated 2014).
